# Test results taken from ChEMBL document CHEMBL1201862, “PubChem BioAssay data set” (2004).
# Calls of active or inactive are those of the source.
# Assays:
# [1] = biological target: T1, Replicative DNA helicase DnaB (Mycobacterium tuberculosis, UniProt P9WMR3); experiment: DnaB intein splicing inhibitors, dose response, biochemical, cell-free fluorescence (AID 449749); format: functional
# T1 sequence (P9WMR3 whole entry): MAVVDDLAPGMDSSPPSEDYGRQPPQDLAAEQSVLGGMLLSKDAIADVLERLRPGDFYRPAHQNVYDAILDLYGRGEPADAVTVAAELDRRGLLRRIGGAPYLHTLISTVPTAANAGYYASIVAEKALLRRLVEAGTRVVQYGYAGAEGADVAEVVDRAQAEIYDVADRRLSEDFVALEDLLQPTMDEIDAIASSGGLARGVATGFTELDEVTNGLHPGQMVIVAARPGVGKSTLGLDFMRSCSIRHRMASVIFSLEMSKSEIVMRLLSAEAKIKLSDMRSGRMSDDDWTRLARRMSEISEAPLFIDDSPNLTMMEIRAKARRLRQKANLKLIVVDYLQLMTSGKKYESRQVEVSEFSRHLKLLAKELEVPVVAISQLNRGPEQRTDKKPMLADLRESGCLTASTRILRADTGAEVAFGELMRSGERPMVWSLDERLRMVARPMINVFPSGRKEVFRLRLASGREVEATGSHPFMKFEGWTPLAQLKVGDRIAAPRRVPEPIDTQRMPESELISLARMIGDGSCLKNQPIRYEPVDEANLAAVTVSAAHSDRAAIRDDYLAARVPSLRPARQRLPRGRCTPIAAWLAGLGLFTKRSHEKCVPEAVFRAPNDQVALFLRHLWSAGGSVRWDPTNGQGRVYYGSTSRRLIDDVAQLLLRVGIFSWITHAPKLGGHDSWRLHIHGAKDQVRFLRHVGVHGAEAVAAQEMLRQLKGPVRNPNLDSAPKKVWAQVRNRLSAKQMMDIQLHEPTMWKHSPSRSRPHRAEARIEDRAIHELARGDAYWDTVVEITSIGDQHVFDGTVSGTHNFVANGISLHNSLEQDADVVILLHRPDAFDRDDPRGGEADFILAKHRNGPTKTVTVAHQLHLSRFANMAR
# [2] = biological target: T2, Protein RecA (Mycobacterium tuberculosis, UniProt P9WHJ3); experiment: Fluorescence Cell-Free Homogeneous Dose Retest to Identify Inhibitors of RecA-Intein Splicing Activity. [Related pubchem assays (depositor defined):AID2097, AID2223, AID489010, AID492950]; format: functional
# T2 sequence (P9WHJ3 whole entry): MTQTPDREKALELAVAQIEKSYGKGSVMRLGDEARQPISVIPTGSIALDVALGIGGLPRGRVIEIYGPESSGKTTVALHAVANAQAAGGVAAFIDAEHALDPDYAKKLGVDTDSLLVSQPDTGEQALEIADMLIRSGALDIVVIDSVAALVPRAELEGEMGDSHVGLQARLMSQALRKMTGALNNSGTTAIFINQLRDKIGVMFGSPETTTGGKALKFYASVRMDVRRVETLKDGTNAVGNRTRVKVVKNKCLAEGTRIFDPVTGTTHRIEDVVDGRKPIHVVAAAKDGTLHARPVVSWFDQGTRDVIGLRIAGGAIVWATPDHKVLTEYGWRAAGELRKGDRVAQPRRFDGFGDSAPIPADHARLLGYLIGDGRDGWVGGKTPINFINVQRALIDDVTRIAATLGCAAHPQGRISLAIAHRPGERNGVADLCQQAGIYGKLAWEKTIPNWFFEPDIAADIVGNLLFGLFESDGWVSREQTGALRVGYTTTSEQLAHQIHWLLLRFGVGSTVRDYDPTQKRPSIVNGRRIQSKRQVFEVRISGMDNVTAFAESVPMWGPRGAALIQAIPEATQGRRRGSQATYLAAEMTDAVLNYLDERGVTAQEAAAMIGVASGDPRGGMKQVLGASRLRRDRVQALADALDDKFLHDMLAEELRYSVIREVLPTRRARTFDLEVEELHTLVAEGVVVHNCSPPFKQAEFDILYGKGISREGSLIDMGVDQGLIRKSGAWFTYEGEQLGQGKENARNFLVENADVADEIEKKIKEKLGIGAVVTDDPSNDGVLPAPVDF
# [3] = biological target: T3, Heat shock factor protein 1 (Mus musculus, UniProt P38532); experiment: enhancement of HSF1-driven luciferase signal – cell-based, NIH3T3, luminescence, dose retest, confirmation (AID 435004); format: functional;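 note: stress induced by proteasome inhibitor MG132 added 30 min after compound; luciferase reporter driven by HSF1 response element in NIH3T3 cells; actives raise luminescence as potentiators of the MG132 stress response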
# T3 sequence (P38532 whole entry): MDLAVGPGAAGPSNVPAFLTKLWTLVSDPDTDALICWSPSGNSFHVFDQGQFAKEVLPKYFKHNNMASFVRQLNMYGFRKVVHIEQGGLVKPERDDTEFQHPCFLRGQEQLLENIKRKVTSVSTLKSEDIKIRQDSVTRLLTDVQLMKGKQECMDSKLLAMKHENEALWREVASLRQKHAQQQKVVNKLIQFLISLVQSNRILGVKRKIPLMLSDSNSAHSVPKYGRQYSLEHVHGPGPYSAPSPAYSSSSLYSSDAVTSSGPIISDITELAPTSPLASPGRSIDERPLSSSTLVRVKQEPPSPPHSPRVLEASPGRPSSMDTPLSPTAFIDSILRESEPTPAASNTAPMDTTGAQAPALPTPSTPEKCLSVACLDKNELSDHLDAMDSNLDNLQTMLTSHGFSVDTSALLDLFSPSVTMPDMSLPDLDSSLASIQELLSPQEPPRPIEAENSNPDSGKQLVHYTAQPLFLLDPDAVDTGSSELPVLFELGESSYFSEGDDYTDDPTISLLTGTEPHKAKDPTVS
# [4] = biological target: Cytochrome P450 2C19 (Homo sapiens, UniProt P33261); experiment: Cytochrome panel assay with activity outcomes. Panel member name: p450-cyp2c19 Compounds with AC50 equal or less than 10 uM are considered active; format: functional; details: read-out: AC50
# [5] = biological target: Cytochrome P450 2D6 (Homo sapiens, UniProt P10635);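 note: CYP2D6 member of a cytochrome P450 panel assay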
# [6] = biological target: Cytochrome P450 3A4 (Homo sapiens, UniProt P08684);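 note: CYP3A4 tested as one member of a cytochrome P450 panel screen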
# [7] = test system: INS1; experiment: INS-1E survival protection against cytokine death – cell-based, luminescence, retest, dose response (AID 449756); format: functional; details: Rattus norvegicus;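 note: cell death triggered by IL-1 beta plus TNF-alpha plus IFN-gamma mixture; protective hits raise ATP signal compared with cytokine alone wells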
# [8] = biological target: Cytochrome P450 2C9 (Homo sapiens, UniProt P11712)
# [9] = NIH-3T3 fibroblast cytotoxicity, dose response, cytotoxicity control, cell-based, fluorescence, Alamar Blue, secondary assay (AID 2327); format: functional;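 note: NIH-3T3 mouse fibroblasts cultured with fluconazole at 8 µg/mL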
# [10] = fluconazole-exposed Candida albicans growth modulators – fluorescence, retest, confirmation (AID 2467); format: functional, cell-based
# [11] = Trypanosoma cruzi growth suppression in host cells – NIH3T3 host cells, beta-gal luminescence, confirmation (AID 2044); format: functional, cell-based;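 note: intracellular parasites grown in NIH/3T3 mouse fibroblasts as host cells; luminescent beta-galactosidase reporter signal from transgenic T. cruzi replicating inside host cells; inhibitors lower the luminescence signal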
# [12] = NIH3T3 cell viability loss – ATP luminescence, mouse fibroblasts, counter-screen, dose response (AID 2010); format: functional, cell-based;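 note: cells exposed to compound for about 90 hours before reading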
# Sequence of Cytochrome P450 3A4 (P08684 whole entry): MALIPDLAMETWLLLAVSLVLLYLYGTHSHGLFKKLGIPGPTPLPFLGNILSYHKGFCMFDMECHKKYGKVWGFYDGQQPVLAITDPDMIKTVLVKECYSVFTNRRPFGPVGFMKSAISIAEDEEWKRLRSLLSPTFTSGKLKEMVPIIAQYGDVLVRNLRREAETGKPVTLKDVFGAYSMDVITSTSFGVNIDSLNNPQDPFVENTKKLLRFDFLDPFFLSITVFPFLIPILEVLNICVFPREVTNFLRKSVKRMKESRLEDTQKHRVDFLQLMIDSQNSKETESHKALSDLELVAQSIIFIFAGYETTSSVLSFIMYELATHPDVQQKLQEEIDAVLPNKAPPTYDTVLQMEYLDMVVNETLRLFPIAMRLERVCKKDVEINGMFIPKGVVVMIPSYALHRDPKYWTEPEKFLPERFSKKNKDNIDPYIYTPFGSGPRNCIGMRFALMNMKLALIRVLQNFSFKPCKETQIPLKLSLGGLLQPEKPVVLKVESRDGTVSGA
# Sequence of Cytochrome P450 2C9 (P11712 whole entry): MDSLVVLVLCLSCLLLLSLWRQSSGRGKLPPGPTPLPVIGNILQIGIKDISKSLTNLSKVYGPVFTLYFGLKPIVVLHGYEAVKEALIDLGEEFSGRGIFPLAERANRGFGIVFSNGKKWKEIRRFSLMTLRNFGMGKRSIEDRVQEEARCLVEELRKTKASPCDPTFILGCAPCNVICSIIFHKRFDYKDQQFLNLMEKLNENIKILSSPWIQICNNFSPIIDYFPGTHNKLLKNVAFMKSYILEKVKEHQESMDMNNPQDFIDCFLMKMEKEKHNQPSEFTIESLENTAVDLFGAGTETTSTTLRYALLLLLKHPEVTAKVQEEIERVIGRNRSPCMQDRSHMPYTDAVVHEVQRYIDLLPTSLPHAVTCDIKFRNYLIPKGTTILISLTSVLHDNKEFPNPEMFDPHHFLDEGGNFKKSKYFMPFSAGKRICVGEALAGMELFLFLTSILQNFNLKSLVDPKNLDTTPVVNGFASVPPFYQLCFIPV
# Sequence of Cytochrome P450 2C19 (P33261 whole entry): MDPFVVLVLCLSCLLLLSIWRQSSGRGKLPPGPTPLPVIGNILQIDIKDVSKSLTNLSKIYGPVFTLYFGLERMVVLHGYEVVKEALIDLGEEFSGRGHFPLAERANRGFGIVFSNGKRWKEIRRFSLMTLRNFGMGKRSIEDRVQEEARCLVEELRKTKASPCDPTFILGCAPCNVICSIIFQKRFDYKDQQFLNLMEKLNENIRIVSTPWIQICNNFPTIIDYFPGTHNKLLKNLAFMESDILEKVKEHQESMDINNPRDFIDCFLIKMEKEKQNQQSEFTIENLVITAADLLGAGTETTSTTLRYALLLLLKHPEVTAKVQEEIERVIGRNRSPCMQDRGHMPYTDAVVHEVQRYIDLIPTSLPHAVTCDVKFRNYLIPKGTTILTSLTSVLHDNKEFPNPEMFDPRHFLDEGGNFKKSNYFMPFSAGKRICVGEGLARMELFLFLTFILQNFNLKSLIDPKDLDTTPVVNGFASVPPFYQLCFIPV
# Sequence of Cytochrome P450 2D6 (P10635 whole entry): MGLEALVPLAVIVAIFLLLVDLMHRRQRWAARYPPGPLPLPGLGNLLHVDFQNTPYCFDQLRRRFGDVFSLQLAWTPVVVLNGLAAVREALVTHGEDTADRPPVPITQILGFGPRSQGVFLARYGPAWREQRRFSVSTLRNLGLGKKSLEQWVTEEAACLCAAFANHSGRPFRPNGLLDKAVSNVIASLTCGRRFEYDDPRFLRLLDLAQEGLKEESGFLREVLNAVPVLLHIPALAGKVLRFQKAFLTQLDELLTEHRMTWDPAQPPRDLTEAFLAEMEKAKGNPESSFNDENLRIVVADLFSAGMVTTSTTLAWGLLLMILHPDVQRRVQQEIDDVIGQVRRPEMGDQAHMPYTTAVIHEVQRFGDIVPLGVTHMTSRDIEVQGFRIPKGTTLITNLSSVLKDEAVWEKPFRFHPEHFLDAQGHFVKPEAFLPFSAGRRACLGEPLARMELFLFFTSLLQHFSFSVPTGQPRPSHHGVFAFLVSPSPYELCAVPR
structure (smiles),measurement,setting,value
COc1ccc(Nc2oc(COc3ccccc3F)nc2C#N)cc1,AC50,[1],19.9 µM (active)
same,EC50,[2],2.44 µM (active)
Cc1cccc(-c2cc3c(nn2)-c2ccccc2C3=O)c1,EC50,[3],0.897 µM (active)
COc1ncc2nc(CCc3ccccc3)c(=O)n(C)c2n1,AC50,[4],25.1 µM (inconclusive)
same,AC50,[5],20 µM (inconclusive)
N#Cc1cccc(-c2nc(NCc3ccccc3)c3ccccc3n2)c1,AC50,[6],20 µM (inconclusive)
CCCc1cc2c(n1Cc1cc(F)cc(F)c1)C(C)C1CN(C(=O)c3ccccc3)C(C)(C(=O)OC)C21 (centres undefined),AC50,[4],39.8 µM (inconclusive)
same,AC50,[5],25.1 µM (inconclusive)
CCOC(=O)C1C(=O)NC(C)C1c1ccccc1 (centres undefined),AC50,[4],31.6 µM (inconclusive)
same,AC50,[5],0.0501 µM (inconclusive)
CC(=O)N1N=C(c2ccccc2)CC1c1ccccc1[N+](=O)[O-] (centres undefined),EC50,[3],> 260 µM (inactive)
Cc1ccc[n+](CC(=O)Nc2ccc([N+](=O)[O-])cc2Cl)c1,EC50,[3],> 260 µM (inactive)
CC(C)(C)c1ccc(NNC(=O)C2CCC2)cc1,AC50,[7],7.4 µM (active)
CCSc1nnc(NC(=O)c2cccnc2Cl)s1,EC50,[3],> 260 µM (inactive)
CCN(c1ccccc1)S(=O)(=O)c1cc(NC(=O)Nc2ccccc2C#N)ccc1Cl,EC50,[3],> 260 µM (inactive)
COc1ccc(COC(=O)N/N=C2/C[C@@H](O)[C@@H](O)[C@@H]3[C@@H]4C(=O)N([C@@H](C)c5ccccc5)C(=O)[C@H]4CC[C@@H]23)cc1,AC50,[6],3.98 µM (inconclusive)
COc1cc(/C=C/C(=O)O)cc(S(=O)(=O)NCCCO)c1OC,AC50,[8],10 µM (inconclusive)
CCOc1ccc(NC(=O)N(C2CCCCC2)C(C)c2ccncc2)cc1 (centres undefined),AC50,[5],17.8 µM (inconclusive)
Cc1c(C(=O)NN)nn(-c2ccc(Cl)cc2)c(=O)c1C#N,AC50,[1],79.8 µM (active)
same,EC50,[2],8.06 µM (active)
Cc1cc(C)n(-c2ccc(C(=O)Nc3cc(C(F)(F)F)ccc3N3CCOCC3)cc2)n1,AC50,[4],10 µM (inconclusive)
same,AC50,[6],14.1 µM (inconclusive)
Cc1ccc(C(C)(O)CS(=O)(=O)Cc2ccccc2Cl)cc1 (centres undefined),EC50,[3],> 260 µM (inactive)
COc1ccc(NC(=O)c2cc(C)n(Cc3cccs3)c2C)cc1,EC50,[3],106 µM (inconclusive)
CCOC(=O)CNC(c1ccccc1)c1cc(Br)ccc1NC(=O)CCN1CCOCC1 (centres undefined),EC50,[9],39.4 µM (active)
same,EC50,[10],3.44 µM (active)
O=C(Oc1cccc2cccnc12)c1cccc(N2C(=O)C3C4CCC(C4)C3C2=O)c1 (centres undefined),AC50,[7],16.2 µM (active)
COc1ccc(/C=C2\N=C(SC)N(C)C2=O)cc1,AC50,[6],28.2 µM (inconclusive)
Cc1ccc(OCc2cc(C(=O)N(C)Cc3cc(C4CC4)[nH]n3)no2)cc1C,AC50,[7],> 260 µM (inactive)
C=CCn1c(SCC)nc2sc3c(c2c1=O)CCc1ccccc1-3,AC50,[5],11.2 µM (inconclusive)
Cc1ccc(NC(=O)NCCCc2ccccc2)cc1,AC50,[6],7.94 µM (inconclusive)
NC(=O)CC12CC3CC(C1)CC(CC(N)=O)(C3)C2,EC50,[9],> 160 µM (inactive)
same,EC50,[10],> 38 µM (not active)
O=C(c1cc(Cl)c(=O)n(Cc2ccc(Cl)cc2)c1)N1CCOCC1,AC50,[6],28.2 µM (inconclusive)
Cc1ccc(O)c(-c2cc3ccccc3[nH]2)c1,EC50,[9],> 160 µM (inactive)
same,EC50,[10],> 38 µM (not active)
Cc1cc(O)c2n(Cc3ccccc3Cl)nc[n+]2n1,EC50,[3],> 260 µM (inactive)
CC(=O)NC(c1ccco1)c1cc(F)c2cccnc2c1O (centres undefined),AC50,[7],2.71 µM (active)
O=C(COc1ccccc1)Nc1cc(C(F)(F)F)ccc1N1CCCC1,AC50,[5],17.8 µM (inconclusive)
CCC(C)c1ccc(Nc2ncccc2C#N)cc1 (centres undefined),AC50,[5],28.2 µM (inconclusive)
CS/C(=C\[N+](=O)[O-])Nc1ccc(Cl)cc1,EC50,[9],> 150 µM (inconclusive)
same,AC50,[1],23.2 µM (active)
same,EC50,[10],> 38 µM (not active)
same,EC50,[2],12.7 µM (active)
c1csc(CN2CCCC3(CCNCC3)C2)n1,AC50,[8],31.6 µM (inconclusive)
COCC(=O)N1CCC[C@@]2(CCN(Cc3nccs3)C2)C1,AC50,[6],20 µM (inconclusive)
Cc1nc2c(n1C1CCCCC1)C(=O)c1ccccc1C2=O,AC50,[5],22.4 µM (inconclusive)
c1ccc2c(CC3NCCN3)cccc2c1,AC50,[5],3.98 µM (inconclusive)
Oc1ccc2ccccc2c1/C=N\Cc1c(O)ccc2ccccc12,AC50,[5],3.98 µM (inconclusive)
CCc1nc(SCC(=O)c2ccc(Cl)s2)c2oc3ccccc3c2n1,EC50,[3],43.5 µM (active)
CCOC(=O)c1sc(C)c(C(=O)NCC(C)(C)CN(C)C)c1N,AC50,[8],39.8 µM (inconclusive)
Cc1nn(C(CC(=O)O)C(=O)O)c(C)c1Br (centres undefined),EC50,[3],> 260 µM (inactive)
CCCCCCC1CC(C)(/C(C)=N/NC(N)=O)OC1=O (centres undefined),AC50,[6],17.8 µM (inconclusive)
CCn1c(C)c(/C=N/Nc2nc3ccccc3s2)c2ccccc21,EC50,[11],2.5 µM (active)
same,AC50,[5],14.1 µM (inconclusive)
same,EC50,[12],> 60 µM (not active)
C/C(CC(=O)Nc1ccc(F)cc1)=N\NC(=O)COc1ccccc1,AC50,[1],10.3 µM (active)
same,EC50,[2],3.72 µM (active)
COc1cc(/C=N/NC(=O)c2cccs2)ccc1OCc1ccccc1,AC50,[6],15.8 µM (inconclusive)
